Patent US5508428A, “Spiro compound” (Daiichi Phamaceutical Co., Ltd., priority 1988, dated 1996)
In brackets after ≈: the same amount, converted by molar mass.

Columns and labels:
Type in all cases: cell-based
[1] = test system: Ps. maltophilia, IID-1275; experiment: Antibacterial activity (MIC), Ps. maltophilia IID-1275; conditions: for MIC: Stenotrophomonas maltophilia, IID1275, Ps. maltophilia
Description: (§1) The antibacterial activity assays were performed by the method specified by Japan Society of Chemotherapy (Chemotherapy 29(1), 76 (1981). The table of antibacterial activity is followed by the reaction schemes for the synthesis of various spiro ring-containing cyclic amine derivatives, intermediate compounds for synthesis of quinolone rings and synthesis of various spiro compounds.

S. epidermidis, 56500 = experiment: Antibacterial activity (MIC), S. epidermidis 56500; conditions: for Antibacterial Activity (MIC): S. epidermidis; for MIC: Staphylococcus epidermidis, 56500, S. epidermidis
Description: as §1

Pr. vulgaris, 08601 = experiment: Antibacterial activity (MIC), Pr. vulgaris 08601; conditions: for MIC: Proteus vulgaris
Description: as §1

E. coli, NIHJ = experiment: Antibacterial activity (MIC), E. coli NIHJ; conditions: for MIC: Escherichia coli
Description: as §1

[2] = test system: Str. faecalis, ATCC-19433; experiment: Antibacterial activity (MIC), Str. faecalis ATCC-19433; conditions: for Antibacterial Activity (MIC): Str. faecalis; for MIC: Enterococcus faecalis, ATCC19433, Str. faecalis
Description: as §1

Str. pyogenes, G-36 = experiment: Antibacterial activity (MIC), Str. pyogenes G-36; conditions: for Antibacterial Activity (MIC): Str. pyogenes; for MIC: Streptococcus pyogenes, G36, Str. pyogenes
Description: as §1

Ps. aeruginosa, 32104 = experiment: Antibacterial activity (MIC), Ps. aeruginosa 32104; conditions: for Antibacterial Activity (MIC): Ps. aeruginosa; for MIC: Pseudomonas aeruginosa, 32104, Ps. aeruginosa
Description: as §1

S. aureus, 209P = experiment: Antibacterial activity (MIC), S. aureus 209P; conditions: for MIC: Staphylococcus aureus
Description: as §1

Ser. marcescens, 10100 = experiment: Antibacterial activity (MIC), Ser. marcescens 10100; conditions: for MIC: Serratia marcescens, 10100, Ser. marcescens
Description: as §1

Ps. aeruginosa, 32121 = experiment: Antibacterial activity (MIC), Ps. aeruginosa 32121; conditions: for MIC: Pseudomonas aeruginosa, 32121, Ps. aeruginosa
Description: as §1

S. flexneri, 2A 5503 = experiment: Antibacterial activity (MIC), S. flexneri 2A 5503; conditions: for MIC: Shigella flexneri, 2A5503
Description: as §1

Pr. mirabillis, IF0-3849 = experiment: Antibacterial activity (MIC), Pr. mirabillis IF0-3849
Description: as §1

Compound | MIC [1] | MIC (Pr. vulgaris, 08601) | MIC (E. coli, NIHJ) | MIC (S. aureus, 209P) | MIC (Ser. marcescens, 10100) | MIC (Ps. aeruginosa, 32121) | MIC (S. flexneri, 2A 5503) | MIC (Pr. mirabillis, IF0-3849) | MIC (S. epidermidis, 56500) | MIC [2] | MIC (Str. pyogenes, G-36) | MIC (Ps. aeruginosa, 32104) | other results
NC1CN(c2c(F)cc3c(=O)c(C(=O)O)cn(C4CC4)c3c2F)CC12CC2 (single isomer, unassigned; (+)) [Compound 31a, (+)-7-(7-Amino-5-azaspiro[2.4]heptan-5-yl)-1-cyclopropyl-6,8-difluoro-1,4-dihydro-4-oxoquinoline-3-carboxylic Acid] | 0.1 µg/mL (≈ 0.266 µM) | ≤ 0.05 µg/mL | ≤ 0.05 µg/mL | 0.1 µg/mL (≈ 0.266 µM) | ≤ 0.05 µg/mL | 0.1 µg/mL (≈ 0.266 µM) | ≤ 0.05 µg/mL | 0.1 µg/mL (≈ 0.266 µM) | – | – | – | – | Antibacterial Activity (MIC) (S. epidermidis, 56500): 0.39 µg/mL; Antibacterial Activity (MIC) [2]: 0.79 µg/mL; Antibacterial Activity (MIC) (Str. pyogenes, G-36): 1.57 µg/mL; Antibacterial Activity (MIC) (Ps. aeruginosa, 32104): 0.20 µg/mL
O=C(O)c1cn(C2CC2)c2c(Cl)c(N3CC(O)C4(CC4)C3)c(F)cc2c1=O (stereo not drawn) [Compound 39, 7-(7-Hydroxy-5-azaspiro[2.4]heptan-5-yl)-8-chloro-1-cyclopropyl-6-fluoro-1,4-dihydro-4-oxoquinoline-3-carboxylic acid] | ≤ 0.05 µg/mL | ≤ 0.05 µg/mL | ≤ 0.05 µg/mL | ≤ 0.05 µg/mL | 0.39 µg/mL (≈ 0.993 µM) | 0.39 µg/mL (≈ 0.993 µM) | ≤ 0.05 µg/mL | 0.2 µg/mL (≈ 0.509 µM) | ≤ 0.05 µg/mL | 0.39 µg/mL (≈ 0.993 µM) | 0.39 µg/mL (≈ 0.993 µM) | 1.56 µg/mL (≈ 3.97 µM) | –
NC1CN(c2nc3c(cc2F)c(=O)c(C(=O)O)cn3C2CC2)CC12CC2 (single isomer, unassigned; (-)) [Compound 35b, (-)-7-(7-Amino-5-azaspiro[2.4]heptan-5-yl)-1-cyclopropyl-6-fluoro-4-oxo-1,4-dihydro-1,8-naphthyridine-3-carboxylic acid] | ≤ 0.05 µg/mL | ≤ 0.05 µg/mL | ≤ 0.05 µg/mL | ≤ 0.05 µg/mL | ≤ 0.05 µg/mL | ≤ 0.05 µg/mL | ≤ 0.05 µg/mL | ≤ 0.05 µg/mL | 0.1 µg/mL (≈ 0.279 µM) | 0.39 µg/mL (≈ 1.09 µM) | 0.78 µg/mL (≈ 2.18 µM) | ≤ 0.05 µg/mL | –
NC1CN(c2c(F)cc3c(=O)c(C(=O)O)cn(C4CC4)c3c2F)CC12CC2 (single isomer, unassigned; (-)) [Compound 31b, (-)-7-(7-Amino-5-azaspiro[2.4]heptan-5-yl)-1-cyclopropyl-6,8-difluoro-1,4-dihydro-4-oxoquinoline-3-carboxylic Acid] | – | – | – | – | – | – | – | – | – | – | – | – | Antibacterial Activity (MIC) ([1]; Ps. maltophilia): ≤ 0.05 µg/mL; Antibacterial Activity (MIC) (S. epidermidis, 56500): ≤ 0.05 µg/mL; Antibacterial Activity (MIC) (Pr. vulgaris, 08601): ≤ 0.05 µg/mL; Antibacterial Activity (MIC) (E. coli, NIHJ): ≤ 0.05 µg/mL; Antibacterial Activity (MIC) [2]: 0.10 µg/mL; Antibacterial Activity (MIC) (Str. pyogenes, G-36): 0.10 µg/mL; Antibacterial Activity (MIC) (Ps. aeruginosa, 32104): ≤ 0.05 µg/mL; Antibacterial Activity (MIC) (S. aureus, 209P): ≤ 0.05 µg/mL; Antibacterial Activity (MIC) (Ser. marcescens, 10100; Ser. marcescens): ≤ 0.05 µg/mL; Antibacterial Activity (MIC) (Ps. aeruginosa, 32121; Ps. aeruginosa): ≤ 0.05 µg/mL; Antibacterial Activity (MIC) (S. flexneri, 2A 5503): ≤ 0.05 µg/mL; Antibacterial Activity (MIC) (Pr. mirabillis, IF0-3849): ≤ 0.05 µg/mL
N[C@@H]1CN(c2cc3c(cc2F)c(=O)c(C(=O)O)cn3C2CC2)CC12CC2 [Compound 33b, (-)-7-[7-(S)-amino-5-azaspiro[2.3]heptan-5-yl)-1-cyclopropyl-6-fluoro-1,4-dihydro-4-oxoquinoline-3-carboxylic acid] | 0.1 µg/mL (≈ 0.28 µM) | ≤ 0.05 µg/mL | ≤ 0.05 µg/mL | ≤ 0.05 µg/mL | ≤ 0.05 µg/mL | ≤ 0.05 µg/mL | ≤ 0.05 µg/mL | ≤ 0.05 µg/mL | 0.1 µg/mL (≈ 0.28 µM) | 0.2 µg/mL (≈ 0.56 µM) | 0.2 µg/mL (≈ 0.56 µM) | ≤ 0.05 µg/mL | –
Cc1c(N2CC(N)C3(CC3)C2)c(F)cc2c(=O)c(C(=O)O)cn(C3CC3)c12 (single isomer, unassigned; (-)) [Compound 55b, (-)-7-(7-Amino-5-azaspiro[2.3]heptan-5-yl)-1-cyclopropyl-6-fluoro-8-methyl-4-oxo-1,4-dihydroquinoline-3-carboxylic acid] | ≤ 0.05 µg/mL | ≤ 0.05 µg/mL | ≤ 0.05 µg/mL | ≤ 0.05 µg/mL | 0.1 µg/mL (≈ 0.269 µM) | ≤ 0.05 µg/mL | ≤ 0.05 µg/mL | ≤ 0.05 µg/mL | ≤ 0.05 µg/mL | 0.1 µg/mL (≈ 0.269 µM) | 0.1 µg/mL (≈ 0.269 µM) | ≤ 0.05 µg/mL | –
NC1CN(c2cc3c(cc2F)c(=O)c(C(=O)O)cn3C2CC2)CC12CC2 (racemic) [Compound 33, 7-(7-Amino-5-azaspiro[2.4]heptan-5-yl)-1-cyclopropyl-6-fluoro-1,4-dihydro-4-oxoquinoline-3-carboxylic Acid] | 0.1 µg/mL (≈ 0.28 µM) | ≤ 0.05 µg/mL | ≤ 0.05 µg/mL | ≤ 0.05 µg/mL | 0.1 µg/mL (≈ 0.28 µM) | ≤ 0.05 µg/mL | ≤ 0.05 µg/mL | ≤ 0.05 µg/mL | 0.2 µg/mL (≈ 0.56 µM) | 0.39 µg/mL (≈ 1.09 µM) | 0.39 µg/mL (≈ 1.09 µM) | 0.1 µg/mL (≈ 0.28 µM) | –
NC1CN(c2c(F)cc3c(=O)c(C(=O)O)cn(C4CC4)c3c2Cl)CC12CC2 (racemic) [Compound 32, 7-(7-Amino-5-azaspiro[2.4]heptan-5-yl)-8-chloro-1-cyclopropyl-6-fluoro-1,4-dihydro-4-oxoquinoline-3-carboxylic Acid] | ≤ 0.05 µg/mL | ≤ 0.05 µg/mL | ≤ 0.05 µg/mL | ≤ 0.05 µg/mL | ≤ 0.05 µg/mL | ≤ 0.05 µg/mL | ≤ 0.05 µg/mL | ≤ 0.05 µg/mL | 0.1 µg/mL (≈ 0.255 µM) | 0.1 µg/mL (≈ 0.255 µM) | 0.1 µg/mL (≈ 0.255 µM) | 0.1 µg/mL (≈ 0.255 µM) | –
C[C@H]1COc2c(N3CC(N)C4(CCC4)C3)c(F)cc3c(=O)c(C(=O)O)cn1c23 (stereo partly drawn) [Compound 98, 10-(8-Amino-6-azaspiro[3.4]octan-6-yl)-9-fluoro-2,3-dihydro-3-(S)-methyl-7-oxo-7H-pyrido[1,2,3-de][1,4]-benzoxazine-6-carboxylic acid] | 0.2 µg/mL (≈ 0.516 µM) | ≤ 0.05 µg/mL | ≤ 0.05 µg/mL | ≤ 0.05 µg/mL | 0.1 µg/mL (≈ 0.258 µM) | 0.2 µg/mL (≈ 0.516 µM) | ≤ 0.05 µg/mL | 0.2 µg/mL (≈ 0.516 µM) | ≤ 0.05 µg/mL | 0.2 µg/mL (≈ 0.516 µM) | 0.39 µg/mL (≈ 1.01 µM) | 0.39 µg/mL (≈ 1.01 µM) | –
NC1CN(c2nc3c(cc2F)c(=O)c(C(=O)O)cn3C2CC2)CC12CC2 (stereo not drawn) [Compound 35, 7-(7-amino-5-azaspiro[2.4]heptan-5-yl)-1-cyclopropyl-6-fluoro-1,4-dihydro-4-oxo-1,8-naphthyridine-3-carboxylic acid] | ≤ 0.05 µg/mL | ≤ 0.05 µg/mL | ≤ 0.05 µg/mL | 0.1 µg/mL (≈ 0.279 µM) | ≤ 0.05 µg/mL | ≤ 0.05 µg/mL | ≤ 0.05 µg/mL | 0.1 µg/mL (≈ 0.279 µM) | 0.2 µg/mL (≈ 0.558 µM) | 0.39 µg/mL (≈ 1.09 µM) | 0.78 µg/mL (≈ 2.18 µM) | 0.1 µg/mL (≈ 0.279 µM) | –
NC1CN(c2c(F)cc3c(=O)c(C(=O)O)cn(C4CC4)c3c2F)CC12CCCC2 (stereo not drawn) [Compound 95, 7-(4-amino-2-azaspiro[4.4]nonan-2-yl)-1-cyclopropyl-6,8-difluoro-4-oxo-1,4-dihydroquinoline-3-carboxylic acid] | 0.1 µg/mL (≈ 0.248 µM) | ≤ 0.05 µg/mL | ≤ 0.05 µg/mL | ≤ 0.05 µg/mL | 0.1 µg/mL (≈ 0.248 µM) | 0.2 µg/mL (≈ 0.496 µM) | ≤ 0.05 µg/mL | ≤ 0.05 µg/mL | 0.1 µg/mL (≈ 0.248 µM) | 0.2 µg/mL (≈ 0.496 µM) | 0.2 µg/mL (≈ 0.496 µM) | 0.39 µg/mL (≈ 0.967 µM) | –
C[C@H]1COc2c(N3CC(N)C4(CC4)C3)c(F)cc3c(=O)c(C(=O)O)cn1c23 (stereo partly drawn) [Compound 36, 10-(7-Amino-5-azaspiro[2.4]heptan-5-yl)-9-fluoro-2,3-dihydro-3-(S)-methyl-7-oxo-7H-pyrido[1,2,3-de][1.4]-benzoxazine-6-carboxylic acid] | 0.39 µg/mL (≈ 1.04 µM) | ≤ 0.05 µg/mL | ≤ 0.05 µg/mL | 0.1 µg/mL (≈ 0.268 µM) | 0.2 µg/mL (≈ 0.536 µM) | 0.1 µg/mL (≈ 0.268 µM) | ≤ 0.05 µg/mL | 0.1 µg/mL (≈ 0.268 µM) | 0.2 µg/mL (≈ 0.536 µM) | 0.78 µg/mL (≈ 2.09 µM) | 0.39 µg/mL (≈ 1.04 µM) | 0.2 µg/mL (≈ 0.536 µM) | –
